Test [1] concerns HCT-116. The test can be described thus: Cytotoxicity against human HCT116 cells after 7 days using crystal violet staining by clonogenic survival assay. In kind it is functional, cell-based. To be noted: HCT-116, 168 h.
Test [2] has as its system HCT-116. The test can be described thus: Decrease of cyclin-B1 expression in human HCT116 cells at 40 uM after 24 hrs by Western blot analysis. In kind it is functional, cell-based.
Test [3] concerns HCT-116. Kind of test: Increase of cyclin-D1 expression in human HCT116 cells at 40 uM after 24 to 48 hrs by Western blot analysis. In kind it is functional, cell-based.
For test [4], the system named is HCT-116. Kind of test: Cytotoxicity against human HCT116 cells after 24 to 48 hrs by WST-8 assay. It counts as functional, cell-based.
For test [5], the system named is HCT-116. Kind of test: Cytotoxicity against human HCT116 cells up to 40 uM by WST-8 assay. In kind it is functional, cell-based. To be noted: TDE = time-dependent effect.
Test [6] has as its system HCT-116. The test can be described thus: Effect on cyclin-A1 expression in human HCT116 cells at 40 uM after 12 to 48 hrs by Western blot analysis. In kind it is functional, cell-based.
Test [7] deals with HCT-116. Kind of test: Cell cycle arrest in human HCT116 cells assessed as increase of G1 phase accumulation at 40 uM after 12 to 48 hrs using propidium iodide staining by flow cytometric analysis. It counts as functional, cell-based.
The subject of test [8] is HCT-116. Kind of test: Increase of CDK expression in human HCT116 cells at 40 uM by Western blot analysis. It counts as functional, cell-based. To be noted: TDE = time-dependent effect.
Test [9] has as its system HCT-116. The test can be described thus: Cell cycle arrest in human HCT116 cells assessed as accumulation at sub-G1 phase accumulation at 40 uM after 12 to 48 hrs using propidium iodide staining by flow cytometric analysis relative to total cells. It counts as functional.
In test [10] the test system is HCT-116. The test can be described thus: Increase of cyclin-D1 expression in human HCT116 cells at 40 uM after 12 hrs by Western blot analysis. It counts as functional, cell-based.
In test [11] the test system is HCT-116. The test can be described thus: Increase of p21 expression in human HCT116 cells at 40 uM by Western blot analysis. The following applies: TDE = time-dependent effect. In kind it is functional, cell-based.
The test system of test [12] is HCT-116. Kind of test: Cell cycle arrest in human HCT116 cells assessed as decrease of G2/M phase accumulation at 40 uM after 12 to 48 hrs using propidium iodide staining by flow cytometric analysis. In kind it is functional, cell-based.
The subject of test [13] is HCT-116. The test can be described thus: Cell cycle arrest in human HCT116 cells assessed as decrease of S phase accumulation at 40 uM after 12 to 48 hrs using propidium iodide staining by flow cytometric analysis. It counts as functional, cell-based.

The source made the active and inactive calls. The rule behind the calls is not given here.

In the test with HCT-116 [1], `COc1ccc(C2CC(c3c(O)ccc4ccccc34)=NN2c2ccc(Cl)cc2)c(OC)c1` (stereo not drawn) gave a half-maximal inhibitory concentration (IC50) of 5.4 µM. The same measure, in the same setting: next, `COc1cccc(C2CC(c3ccc4ccccc4c3O)=NN2)c1OC` (stereo not drawn): 15.2 µM; `COc1cccc(C2CC(c3ccc4ccccc4c3O)=NN2)c1` (stereo not drawn): 20.8 µM; `COc1cc(OC)cc(C2CC(c3c(O)ccc4ccccc34)=NN2)c1` (stereo not drawn): 5.7 µM. In the test on HCT-116 [1], `COc1ccc(C2CC(c3ccc4ccccc4c3O)=NN2)cc1` (stereo not drawn) returned a half-maximal inhibitory concentration (IC50) of 13.2 µM. In the test with HCT-116 [1], `COc1cccc(C2CC(c3c(O)ccc4ccccc34)=NN2)c1OC` (stereo not drawn) registered an IC50 of 6.3 µM.

`COc1ccc(C2CC(c3ccc4ccccc4c3O)=NN2)c(OC)c1OC` (stereo not drawn) had a 50% inhibitory concentration (IC50) with HCT-116 [1] of 11.3 µM. Same read-out and setting: next, `COc1cc(OC)c(C2CC(c3ccc4ccccc4c3O)=NN2)cc1OC` (stereo not drawn): 9 µM; `COc1cc(OC)cc(C2CC(c3ccc4ccccc4c3O)=NN2)c1` (stereo not drawn): 4.7 µM; `COc1ccccc1C1CC(c2ccc3ccccc3c2O)=NN1` (stereo not drawn): 17.4 µM. For `COc1ccc(C2CC(c3c(O)ccc4ccccc34)=NN2)c(OC)c1` (stereo not drawn), 2.4 µM corresponded to half-maximal inhibition in the test with HCT-116 [1] (IC50). The outcome with HCT-116 [2], in the test with HCT-116 [6], in the test with HCT-116 [7], with HCT-116 [10], with HCT-116 [12] and with HCT-116 [13] was Active. Moreover, in the test with HCT-116 [3], the result was inactive. In addition, the Activity result was “Dose-dependent effect” in the test on HCT-116 [4]; “tde” in the test on HCT-116 [5]; “tde” with HCT-116 [8]; 21.3% in the test on HCT-116 [9]; “tde” in the test on HCT-116 [11].

Consider `COc1ccc(C2CC(c3ccc4ccccc4c3O)=NN2)c(OC)c1` (stereo not drawn), for which 8.8 µM corresponded to half-maximal inhibition in the test on HCT-116 [1] (IC50). In the test on HCT-116 [1], `COc1cc(OC)c(C2CC(c3c(O)ccc4ccccc34)=NN2c2ccc(Cl)cc2)cc1OC` (stereo not drawn) showed an IC50 of 7.8 µM. The IC50 values of the last two compounds are within 1.5-fold of each other. On the same count and under the same terms, the figure for `COc1cc(OC)c(C2CC(c3ccc4ccccc4c3O)=NN2)c(OC)c1` (stereo not drawn) is 32.5 µM; for `COc1ccc(C2CC(c3c(O)ccc4ccccc34)=NN2c2ccc(Cl)cc2)cc1` (stereo not drawn) it is 9.8 µM; for `COc1ccc(C2CC(c3c(O)ccc4ccccc34)=NN2)cc1` (stereo not drawn) it is 7.8 µM.

The record behind these values is ChEMBL document CHEMBL2440031, “Benzochalcones bearing pyrazoline moieties show anti-colorectal cancer activities and selective inhibitory effects on aurora kinases” (Bioorg Med Chem, 2013).
